Test results: US7897630B2, “5-aryl isoxazolines for controlling invertebrate pests” (E.I. du Pont de Nemours and Company, priority 2005, dated 2011)

Tested on: cat flea (Ctenocephalides felis Bouche)
Test: Test H: control of cat flea on orally dosed CD-1 mouse
Assay type: in vivo
Conditions: oral 10 mg/kg, fleas applied 2 hours after dosing, evaluated 48 hours after flea application
Protocol: For evaluating control of the cat flea (Ctenocephalides felis Bouche), a CD-1® mouse (about 30 g, male, obtained from Charles River Laboratories, Wilmington, Mass.) was orally dosed with a test compound in an amount of 10 mg/kg solubilized in propylene glycol/glycerol formal (60:40). Two hours after oral administration of the test compound, approximately 8 to 16 adult fleas were applied to each mouse. The fleas were then evaluated for mortality 48 hours after flea application to the mouse.

CSc1ccc(C2=NOC(c3cc(Cl)cc(Cl)c3)(C(F)(F)F)C2)cc1Br (racemic) [Compound 205]
flea mortality: ≥ 20%
